Results published in ChEMBL document CHEMBL2029333, “Synthesis of norlignans and in vitro inhibitory activity of antigen-induced degranulation” (Bioorg Med Chem Lett, 2012).

Tested on: RBL-2H3
Assay: Inhibition of DNP-BSA-induced degranulation in rat RBL2H3 cells assessed as reduction in beta-hexosaminidase release after 20 mins by spectrophotometry
Assay type: functional, cell-based
Details: RBL-2H3, 20 min

| Compound | IC50 |
| --- | --- |
| C=CC(CC(=O)c1ccc(OC)cc1)c1ccc(OC)cc1 (stereo not given) | 88.5 µM |
| C=CC(CC(=O)c1ccc(OC)cc1)c1cccc(OC)c1 (stereo not given) | 85.4 µM |
| C=CC(CC(=O)c1ccc(OC)cc1)c1cccc(O)c1 (stereo not given) | 90.5 µM |
| C=CC(CC(O)c1ccc(O)cc1)c1ccc(O)cc1 (stereo not given) | > 200 µM |
| C=CC(CC(O)c1ccc(OC)cc1)c1ccc(OC)cc1 (stereo not given) | > 200 µM |
| C=CC(CC(O)c1ccc(OC)cc1)c1cccc(OC)c1 (stereo not given) | > 200 µM |
| C=CC(/C=C/c1ccc(OC)cc1)c1ccc(OC)cc1 (stereo not given) | > 200 µM |
| C=CC(/C=C/c1ccc(OC)cc1)c1cccc(OC)c1 (stereo not given) | > 200 µM |

The next compounds have a lower IC50 than those just listed; values first:

| IC50 | Compound |
| --- | --- |
| 55.2 µM | C=CC(/C=C/c1ccc(O)cc1)c1ccc(O)cc1 (stereo not given) |
| 18.3 µM | C=CC(CC(=O)c1ccc(O)cc1)c1cccc(O)c1 (stereo not given) |
| 17.9 µM | C=CC(CC(=O)c1ccc(O)cc1)c1cccc(OC)c1 (stereo not given) |
| 34.1 µM | C=CC(CC(O)c1ccc(O)cc1)c1cccc(O)c1 (stereo not given) |
| 55.6 µM | C=CC(/C=C/c1ccc(O)cc1)c1cccc(O)c1 (stereo not given) |
| 34.6 µM | C=CC(CC(=O)c1ccc(O)cc1)c1ccc(O)cc1 (stereo not given) |
| 35.2 µM | CN1CCC(=C2c3ccccc3CC(=O)c3sccc32)CC1 [KETOTIFEN] |
